The supplement of paper PMC8960247
Where a name gives a salt, the structure may show the parent alone. ± gives the standard error.

Key:
621-102 (TSC2-deficient) = test: relative viability vs DMSO; higher = less cytotoxic; settings: serum: 10% FBS, 72 h
621-103 (TSC2-rescued) = test: as above; settings: serum: 10% FBS, 72 h
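Further: immortalized renal angiomyolipoma cells stably carrying empty vector or TSC2, dosed in 384-well plates in DMEM, viability normalized to vehicle-treated wells within each plate.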

Row | SMILES | relative viability (621-102 (TSC2-deficient); 0.0001 µM) | relative viability (621-102 (TSC2-deficient); 0.001 µM) | relative viability (621-102 (TSC2-deficient); 0.01 µM) | relative viability (621-102 (TSC2-deficient); 0.1 µM) | relative viability (621-102 (TSC2-deficient); 1 µM) | relative viability (621-102 (TSC2-deficient); 10 µM) | relative viability (621-103 (TSC2-rescued); 0.0001 µM) | relative viability (621-103 (TSC2-rescued); 0.001 µM) | relative viability (621-103 (TSC2-rescued); 0.01 µM) | relative viability (621-103 (TSC2-rescued); 0.1 µM) | relative viability (621-103 (TSC2-rescued); 1 µM) | relative viability (621-103 (TSC2-rescued); 10 µM)
1 | Cc1cc(Nc2cc(N3CCN(C)CC3)nc(/C=C/c3ccccc3)n2)n[nH]1 [ENMD-2076] | 112 ± 2.8% | 98.5 ± 1.7% | 103.4 ± 0.19% | 98.213 ± 0.069% | 81.1 ± 2.8% | 34.56 ± 0.15% | 100.4 ± 0.78% | 100.9 ± 0.97% | 104 ± 1.5% | 102 ± 2.1% | 73 ± 2.3% | 12.7 ± 0.4%
2 | COc1cc2c(cc1Cc1cccc(Cl)c1F)c(=O)c(C(=O)O)cn2[C@H](CO)C(C)C [Elvitegravir] | 96.63 ± 0.78% | 107.1 ± 0.31% | 105 ± 3.3% | 106 ± 1.4% | 110 ± 3% | 99.7 ± 3.7% | 101 ± 1.1% | 102 ± 1.9% | 98.96 ± 0.48% | 98.96 ± 0.9% | 101.1 ± 1% | 99.17 ± 0.59%
3 | Nc1nc(=O)n([C@@H]2CS[C@H](CO)O2)cc1F [Emtricitabine] | 92.1 ± 2.5% | 90.4 ± 1.3% | 95.4 ± 1% | 88.7 ± 4.1% | 92 ± 9.3% | 83.5 ± 6.5% | 106 ± 1.1% | 110 ± 6.2% | 101 ± 4.7% | 105 ± 2.6% | 100 ± 3.7% | 98.4 ± 1.5%
4 | CCOC(=O)[C@H](CCc1ccccc1)N[C@@H](C)C(=O)N1CCC[C@H]1C(=O)O [Enalapril Maleate] | 103 ± 1.4% | 92.6 ± 3.4% | 101.9 ± 0.59% | 101 ± 3.5% | 105 ± 4.1% | 100.5 ± 0.3% | 99 ± 1.8% | 100 ± 2.9% | 89.7 ± 10% | 100 ± 1.5% | 99.6 ± 0.35% | 103 ± 2.4%
5 | C[C@H](N[C@@H](CCc1ccccc1)C(=O)O)C(=O)N1CCC[C@H]1C(=O)O [Enalaprilat] | 97.6 ± 3.3% | 100 ± 4.3% | 96.26 ± 0.64% | 98.48 ± 0.16% | 95.91 ± 0.29% | 101.3 ± 0.23% | 101 ± 4% | 101.1 ± 0.31% | 95.29 ± 0.25% | 98.36 ± 0.18% | 101 ± 2.5% | 96.34 ± 0.17%
6 | Cn1cc(C2=C(c3cn(C4CCN(Cc5ccccn5)CC4)c4ccccc34)C(=O)NC2=O)c2ccccc21 [Enzastaurin] | 110 ± 3% | 114 ± 1.6% | 107 ± 1.7% | 104 ± 2.2% | 106 ± 4.1% | 98.6 ± 6.9% | 104.1 ± 0.6% | 99.64 ± 0.22% | 102 ± 1.3% | 99.2 ± 0.55% | 102.1 ± 0.61% | 95.6 ± 1.9%
7 | CNC[C@H](O)c1ccc(O)c(O)c1 [Epinephrine bitartrate] | 119 ± 1.4% | 118 ± 1.5% | 105 ± 4% | 101 ± 2.4% | 103 ± 1.3% | 100 ± 1.5% | 102 ± 2.1% | 95.4 ± 4.3% | 93.4 ± 4.4% | 92.99 ± 0.3% | 96 ± 1.2% | 95.31 ± 0.25%
8 | C/C(=C\c1csc(C)n1)[C@@H]1C[C@@H]2O[C@@H]2CCC[C@H](C)[C@H](O)[C@@H](C)C(=O)C(C)(C)[C@@H](O)CC(=O)O1 [Epothilone A] | 63.5 ± 3% | 47 ± 4% | 31.1 ± 0.38% | 27.3 ± 1.1% | 30.4 ± 0.53% | 34.2 ± 0.53% | 87.3 ± 1.9% | 59.1 ± 2.4% | 44 ± 1.4% | 30.8 ± 0.67% | 26.7 ± 0.62% | 50.59 ± 0.26%
9 | C/C(=C\c1csc(C)n1)[C@@H]1C[C@@H]2O[C@]2(C)CCC[C@H](C)[C@H](O)[C@@H](C)C(=O)C(C)(C)[C@@H](O)CC(=O)O1 [Epothilone B (EPIO906)] | 29.4 ± 1.8% | 29.3 ± 0.11% | 27.3 ± 1.2% | 32.2 ± 1.6% | 35.2 ± 2.2% | 37.6 ± 1.2% | 56.73 ± 0.32% | 48.3 ± 0.41% | 38.2 ± 1% | 35.28 ± 0.27% | 48.9 ± 1.2% | 60.1 ± 1.1%
10 | C#Cc1cccc(Nc2ncnc3cc(OCCOC)c(OCCOC)cc23)c1 [Erlotinib] | 106.7 ± 1% | 102 ± 3.1% | 107.7 ± 1% | 103 ± 1.4% | 97.8 ± 1.9% | 96.7 ± 3.3% | 99.81 ± 0.92% | 101 ± 1.1% | 104 ± 2.2% | 101.3 ± 0.39% | 101 ± 2.7% | 96.6 ± 3.3%
11 | COc1ccc2[nH]c([S@@+]([O-])Cc3ncc(C)c(OC)c3C)nc2c1 [Esomeprazole sodium (Nexium I.V.)] | 93.6 ± 1.3% | 107 ± 6.9% | 107 ± 3.4% | 97.9 ± 3.1% | 91.1 ± 1% | 88.632 ± 0.085% | 111 ± 0.41% | 99.3 ± 0.93% | 101.7 ± 0.45% | 112 ± 4% | 102 ± 2.5% | 86.24 ± 0.28%
12 | COc1cc([C@@H]2c3cc4c(cc3[C@@H](O[C@@H]3O[C@@H]5CO[C@@H](C)O[C@H]5[C@H](O)[C@H]3O)[C@H]3COC(=O)[C@H]23)OCO4)cc(OC)c1O [Etoposide (Etopophos)] | 109.8 ± 0.44% | 108.1 ± 0.98% | 114 ± 3.7% | 104 ± 2.5% | 81.3 ± 5.1% | 54.6 ± 2.9% | 99.77 ± 0.28% | 98.19 ± 0.16% | 99.6 ± 1.2% | 98.7 ± 1% | 91.5 ± 2.3% | 55.6 ± 0.8%
13 | CO[C@H]1C[C@@H]2CC[C@@H](C)[C@@](O)(O2)C(=O)C(=O)N2CCCC[C@H]2C(=O)O[C@H]([C@H](C)C[C@@H]2CC[C@@H](OCCO)[C@H](OC)C2)CC(=O)[C@H](C)/C=C(\C)[C@@H](O)[C@@H](OC)C(=O)[C@H](C)C[C@H](C)/C=C/C=C/C=C/1C [Everolimus (RAD001)] | 46.7 ± 2.2% | 56.4 ± 1.5% | 49.8 ± 4.2% | 52.7 ± 3.3% | 54.2 ± 3% | 50.3 ± 3.7% | 71.1 ± 3.2% | 69.7 ± 1.3% | 68.2 ± 1.6% | 71.6 ± 2% | 75.3 ± 2.6% | 67.6 ± 0.97%
14 | O=S(=O)(c1cccc2cnccc12)N1CCCNCC1 [Fasudil HCl] | 95.7 ± 1.9% | 111.14 ± 0.069% | 100 ± 7.1% | 107.7 ± 0.97% | 110 ± 3.2% | 83.5 ± 3.1% | 102 ± 2.1% | 98.11 ± 0.26% | 99.94 ± 0.62% | 97.3 ± 1.3% | 97.052 ± 0.09% | 101.9 ± 0.26%
15 | Cc1nc(-c2ccc(OCC(C)C)c(C#N)c2)sc1C(=O)O [Febuxostat] | 104 ± 2.3% | 104 ± 2.4% | 102.5 ± 0.48% | 105 ± 5.9% | 100.8 ± 0.75% | 99.9 ± 2.2% | 104 ± 2.5% | 100.5 ± 0.98% | 101 ± 2.4% | 102 ± 4% | 98.3 ± 0.27% | 101.3 ± 0.28%
16 | CCOC(=O)C1=C(C)NC(C)=C(C(=O)OC)C1c1cccc(Cl)c1Cl (stereo unspecified) [Felodipine] | 103 ± 2.2% | 97.3 ± 5.4% | 101 ± 4.7% | 103 ± 1.5% | 106 ± 1.6% | 117 ± 4.6% | 104.4 ± 0.74% | 100.1 ± 0.68% | 104 ± 3.1% | 98.2 ± 1.4% | 100 ± 1.6% | 106 ± 2.3%
17 | COC(=O)Nc1nc2cc(Sc3ccccc3)ccc2[nH]1 [Fenbendazole (Panacur)] | 114 ± 2% | 109.5 ± 0.17% | 98.4 ± 4.1% | 91.8 ± 1.4% | 38.2 ± 1.4% | 39.5 ± 0.88% | 108 ± 3.3% | 102 ± 3.8% | 110.5 ± 0.51% | 102 ± 2.8% | 44.28 ± 0.059% | 40.924 ± 0.025%
18 | CC(C)C(=O)Oc1ccc(CO)cc1[C@H](CCN(C(C)C)C(C)C)c1ccccc1 [Fesoterodine fumarate (Toviaz)] | 97.3 ± 5.3% | 100.52 ± 0.035% | 102 ± 1.2% | 109 ± 3.6% | 93.13 ± 0.096% | 94.5 ± 1.9% | 104 ± 1.1% | 105 ± 3% | 106 ± 2.1% | 107 ± 5.6% | 101.2 ± 0.67% | 95.413 ± 0.0029%
